Values of other authors in US20220249345A1, “PRODUCT FOR TREATING KERATINOUS FIBERS, CONTAINING SILANES OF SPECIFIC FORMULAE” (Henkel AG & Co. KGaA, priority 2019, published 2022).
Read-outs that look alike come from different tables or passages of the source.

solubility in water (at about 25° C.) | SMILES | solubility in water (25° C.)
 | Nc1cc(S(=O)(=O)[O-])cc2cc(S(=O)(=O)[O-])c(N=Nc3ccccc3)c(O)c12.[Na+].[Na+] [Acid Red 33, diantrium salt of 5-amino-4-hydroxy-3-(phenylazo)-naphthalene-2,7-disulphonate] | about 2.5 g/L
highly soluble in water | O=C([O-])C1=NN(c2ccc(S(=O)(=O)[O-])cc2)C(=O)C1N=Nc1ccc(S(=O)(=O)[O-])cc1.[Na+].[Na+].[Na+] (stereo not drawn) [Acid Yellow 23, trisodium salt of 4,5-dihydro-5-oxo-1-(4-sulfophenyl)-4-((4-sulfophenyl)azo)-1H-pyrazole-3-carboxylic acid] | 
 | O=S(=O)([O-])c1ccc(N=Nc2c(O)ccc3ccccc23)cc1.[Na+] [Acid Orange 7, sodium salt of 4-[(2-hydroxy-1-naphthyl)azo]benzene sulphonate] | more than 7 g/L
